8 compounds from patent publication US20110207655A1, “CYCLIC DEPSIPEPTIDE COMPOUND AND USE THEREOF” (Astellas Pharma Inc., priority 2008, published 2011) can be followed below.

Starred links: 1 amine or outer side, 2 acyl side, 3 side chain; linkers in the order of their positions; H or OH if unused. Positions of bridges follow the written chain, without caps; N, C: chain ends. Non-standard residues stand in square brackets, D forms with d. Residues, ends and D or L forms follow the SMILES beside them. *: point of attachment. X8 = CC(=O)NC(C(=O)OC(C(C)C)C(N[*:1])C(=O)[*:2])C(O)C(C)C; X2 = CSCC(O)C(NC(C)=O)C(=O)OC(C(C)C)C(N[*:1])C(=O)[*:2]; X3 = CC(C)C(O[*:3])C(N[*:1])C(=O)[*:2]; X7 = O=C(C(Cc1ccccc1F)O[*:1])[*:2]; X4 = CCCC(=O)NC(C(=O)*)C(O)C(C)C; X5 = CSCC(=O)NC(C(=O)*)C(O)C(C)C; X6 = CCC(=O)NC(C(=O)*)C(O)C(C)C; PhLac = O=C(O)[CH](O)Cc1ccccc1; NMeT = CN[CH](C(=O)O)[CH](C)O; NMeA = CN[CH](C)C(=O)O; NMeDha = C=C(NC)C(=O)O

The first test deals with Gq/11. Description: Inhibitory action on Gq/11: LTD4-induced cellular Ca2+ change in CHO cells stably expressing CysLTR2 (FLIPR). The settings on record: 10 nM LTD4, maximum Fluo-4 fluorescence intensity, read-out: Gq/11 inhibitory activities (IC50 values). Format: cell-based. The protocol: The test was carried out according to the method of Non-Patent Citation 3, using a leukotriene receptor CysLTR2 (cysteinyl leukotriene receptor 2), which is known to activate Gq/11. CHO cells stably expressing CysLTR2 were seeded on a 96-well black/clear bottom plate (manufactured by Becton, Dickinson and Company) at 20,000 cells per well, and after 24 hours of seeding, the medium was discarded. Then, Hanks BSS (GIBCO Inc.) including 2 μM Fluo-4, AM (manufactured by Molecular Probe Co.), 0.004% pluronic acid, 1% FBS, 20 mM HEPES, and 2.5 mM probenecid was added thereto at 100 μL per well, followed by incubation at 37° C. for 1 hour. After incubation, the resultant was washed four times with Hanks BSS including 20 mM HEPES, and Hanks BSS including 20 mm HEPES per well was added thereto 100 μL per well. In addition, 50 μL of a test compound that had been diluted with Hanks BSS including 20 mM HEPES to a final concentration from 1×10^−10 M to 1×10^−5 M was added thereto, followed by being left to stand at room temperature for 30 minutes. The change of cellular Ca^2+ concentration after addition of leukotriene D4 (LTD4, manufactured by Cayman Co.), which is a CysLTR2 ligand, was measured over time using an FLIPR (Molecular Device Corp.). 50 μL it of leukotriene D4 that had been diluted with Hanks BSS including 20 mM HEPES to a final concentration of 10 nM at 10 seconds after the initiation of measurement was added thereto, fluorescence intensities were measured every second for 50 seconds and every sixth second for 2 minutes, and a maximum fluorescence intensity during a measurement time of 3 minutes was observed. By plotting the concentrations and the fluorescence intensities of the test compounds, the IC50 values were calculated, which were taken as Gq/11 inhibitory activities.
Turning to `C=C1C(=O)NC(C)C(=O)N(C)C(C)C(=O)NC(C(OC(=O)C(NC(C)=O)C(O)C(C)C)C(C)C)C(=O)N(C)C(C(C)OC)C(=O)OC(C)C(NC(C)=O)C(=O)OC(Cc2ccccc2F)C(=O)N1C` (centres unmarked) [Ref 5] (Ac-T[X7][NMeDha]A[NMeA][X8][NMeT](Me); ester 1-C; configuration not given here), the IC50 is 0.025 µM.

Still in this test, the particulars now being: read-out: Gq/11 inhibitory activities (IC50 values), 10 nM LTD4, maximum Fluo-4 fluorescence intensity.
`C=C1C(=O)NC(C)C(=O)N(C)C(C)C(=O)NC(C(OC(=O)C(NC(=O)CC)C(O)C(C)C)C(C)C)C(=O)N(C)C(C(C)OC)C(=O)OC(C)C(NC(C)=O)C(=O)OC(Cc2ccccc2)C(=O)N1C` (centres unmarked) [Ref 2] (Ac-T[PhLac][NMeDha]A[NMeA][X3](X6)[NMeT](Me); ester 1-C; configuration not given here): the IC50 was 0.034 µM.

Turning to `C=C1C(=O)NC(C)C(=O)N(C)C(C)C(=O)NC(C(OC(=O)C(NC(C)=O)C(O)C(C)C)C(C)C)C(=O)N(C)C(C(C)O)C(=O)OC(C)C(NC(C)=O)C(=O)OC(Cc2ccccc2)C(=O)N1C` (centres unmarked) [Ex2] (Ac-T[PhLac][NMeDha]A[NMeA][X8][NMeT]; ester 1-C; configuration not given here), the IC50 came to 0.317 µM.

Take `C=C1C(=O)NC(C)C(=O)N(C)C(C)C(=O)NC(C(OC(=O)C(NC(=O)CCC)C(O)C(C)C)C(C)C)C(=O)N(C)C(C(C)OC)C(=O)OC(C)C(NC(C)=O)C(=O)OC(Cc2ccccc2)C(=O)N1C` (centres unmarked) [Ex1] (Ac-T[PhLac][NMeDha]A[NMeA][X3](X4)[NMeT](Me); ester 1-C; configuration not given here): the IC50 was found to be 0.031 µM.

`COC(C)C1C(=O)OC(C)C(NC(C)=O)C(=O)OC(Cc2ccccc2)C(=O)N(C)C(C)C(=O)NC(C)C(=O)N(C)C(C)C(=O)NC(C(OC(=O)C(NC(C)=O)C(O)C(C)C)C(C)C)C(=O)N1C` (centres unmarked) [Ref 7] (Ac-T[PhLac][NMeA]A[NMeA][X8][NMeT](Me); ester 1-C; configuration not given here): the IC50 worked out at 0.032 µM.

For `C=C1C(=O)NC(C)C(=O)N(C)C(C)C(=O)NC(C(OC(=O)C(NC(C)=O)C(O)CSC)C(C)C)C(=O)N(C)C(C(C)OC)C(=O)OC(C)C(NC(C)=O)C(=O)OC(Cc2ccccc2)C(=O)N1C` (centres unmarked) [Ex4] (Ac-T[PhLac][NMeDha]A[NMeA][X2][NMeT](Me); ester 1-C; configuration not given here), the IC50 amounted to 0.365 µM.

As to `C=C1C(=O)NC(C)C(=O)N(C)C(C)C(=O)NC(C(OC(=O)C(NC(=O)CSC)C(O)C(C)C)C(C)C)C(=O)N(C)C(C(C)OC)C(=O)OC(C)C(NC(C)=O)C(=O)OC(Cc2ccccc2)C(=O)N1C` (centres unmarked) [Ref 3] (Ac-T[PhLac][NMeDha]A[NMeA][X3](X5)[NMeT](Me); ester 1-C; configuration not given here), the IC50 turned out to be 0.056 µM.

With `C=C1C(=O)NC(C)C(=O)N(C)C(C)C(=O)NC(C(OC(=O)C(NC(C)=O)C(O)CSC)C(C)C)C(=O)N(C)C(C(C)OC)C(=O)OC(C)C(NC(C)=O)C(=O)OC(Cc2ccccc2)C(=O)N1C` (centres unmarked) [Ex3] (Ac-T[PhLac][NMeDha]A[NMeA][X2][NMeT](Me); ester 1-C; configuration not given here), the IC50 was 0.097 µM.
